Data on 14 compounds can be found in patent US20230159469A1, “NOVEL PHTHALAZINE DERIVATIVE HAVING ECTONUCLOEOTIDE PYROPHOSPHATASE/PHOSPHODIESTE RASE INHIBITORY ACTIVITY, AND USE THEREOF” (TXINNO BIOSCIENCE INC., priority 2020, published 2023).

A word on the IC50: it is the midpoint of a concentration-inhibition curve.

Counter-ions that a name gives are not always drawn. A value given as a limit tells only on which side of the number the result lay.

For the experiment, the target named is T1, human recombinant ENPP1 (Homo sapiens, UniProt P22413).
T1 construct: purchased R & D systems
T1 sequence (P22413 1-925): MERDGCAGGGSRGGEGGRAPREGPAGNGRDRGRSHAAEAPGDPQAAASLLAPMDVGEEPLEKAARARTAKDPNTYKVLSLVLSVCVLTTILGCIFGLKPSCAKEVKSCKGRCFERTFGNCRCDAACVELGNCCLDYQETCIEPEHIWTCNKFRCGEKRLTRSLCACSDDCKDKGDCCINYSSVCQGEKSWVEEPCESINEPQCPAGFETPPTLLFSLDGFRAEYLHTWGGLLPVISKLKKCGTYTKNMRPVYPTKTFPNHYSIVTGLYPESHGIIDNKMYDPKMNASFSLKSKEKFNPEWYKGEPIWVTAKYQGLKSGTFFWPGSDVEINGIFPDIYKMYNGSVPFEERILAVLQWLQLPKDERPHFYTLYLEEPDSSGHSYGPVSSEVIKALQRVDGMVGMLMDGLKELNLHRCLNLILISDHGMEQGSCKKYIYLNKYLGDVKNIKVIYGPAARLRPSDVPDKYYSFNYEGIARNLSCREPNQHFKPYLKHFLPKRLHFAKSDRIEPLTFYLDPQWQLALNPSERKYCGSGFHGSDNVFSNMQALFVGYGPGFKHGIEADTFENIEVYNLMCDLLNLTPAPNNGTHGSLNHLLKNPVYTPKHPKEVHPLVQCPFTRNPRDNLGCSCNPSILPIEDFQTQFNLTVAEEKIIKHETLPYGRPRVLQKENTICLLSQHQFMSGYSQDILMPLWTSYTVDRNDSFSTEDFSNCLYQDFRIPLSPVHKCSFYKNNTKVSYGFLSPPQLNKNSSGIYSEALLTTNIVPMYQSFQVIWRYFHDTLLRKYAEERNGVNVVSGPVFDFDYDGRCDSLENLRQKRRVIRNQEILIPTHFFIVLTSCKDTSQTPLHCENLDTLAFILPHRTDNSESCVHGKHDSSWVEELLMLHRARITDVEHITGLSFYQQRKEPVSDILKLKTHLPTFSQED
The experiment can be described thus: ENPP1 enzyme assay with cGAMP substrate (AMP-Glo luminescence). The settings on record: human recombinant ENPP1 3 ng/reaction, cGAMP 5 μM, 37° C. 90 minutes, read-out: Enzymatic activity (ENPP1 IC50). Type of experiment: biochemical. Put shortly: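 Human ENPP1 hydrolysis of 5 μM cGAMP was run for 90 min at 37° C in 50 mM Tris pH 8.5, 250 mM NaCl, 0.5 mM CaCl2, 1 μM ZnCl2, 5% glycerol, 1% DMSO. AMP product was quantified by AMP-Glo luminescence; IC50 came from 3-parameter fits of % residual activity, averaged over at least two runs.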
`COc1cc2c(Cc3ccc4c(c3)CCN4S(=O)(=O)NC(=O)OC(C)(C)C)nn(C)c(=O)c2cc1OC` [Example 177, tert-butyl (5-((6,7-dimethoxy-3-methyl-4-oxo-3,4-dihydrophthalazin-1-yl)methyl)indolin-1-yl)sulfonyl carbamate]: the IC50 was above 10000 nM.

Regarding `COc1cc2c(Cc3cccc(NS(N)(=O)=O)c3)n[nH]c(=O)c2cc1OC` [Example 178, (N-(3-((6,7-dimethoxy-4-oxo-3,4-dihydrophthalazin-1-yl)methyl)phenyl)sulfamide hydrochloride], the IC50 was above 10000 nM.

On to `COc1cc2c(Cc3cccc(NS(N)(=O)=O)c3)nn(C)c(=O)c2cc1OC` [Example 179, N-(3-((6,7-dimethoxy-3-methyl-4-oxo-3,4-dihydrophthalazin-1-yl)methyl)phenyl)sulfamide hydrochloride], for which the 50% inhibitory concentration (IC50) was above 10000 nM.

Regarding `NS(=O)(=O)Nc1ccc(Cc2n[nH]c(=O)c3ccccc23)cc1` [Example 180, N-(4-((4-oxo-3,4-dihydrophthalazin-1-yl)methyl)phenyl)sulfamide hydrochloride], the IC50 was below 1000 nM.

As for `Cn1nc(Cc2ccc(NS(N)(=O)=O)cc2)c2ccccc2c1=O` [Example 181, N-(4-((3-methyl-4-oxo-3,4-dihydrophthalazin-1-yl)methyl)phenyl)sulfamide hydrochloride], the IC50 is below 1000 nM.

Consider `COc1cc2c(Cc3ccc(NS(N)(=O)=O)cc3)n[nH]c(=O)c2cc1OC` [Example 182, N-(4-((6,7-dimethoxy-4-oxo-3,4-dihydrophthalazin-1-yl)methyl)phenyl)sulfamide hydrochloride], for which the IC50 is below 1000 nM.

Turning to `COc1cc2c(Cc3ccc(NS(N)(=O)=O)cc3)nn(C)c(=O)c2cc1OC` [Example 183, N-(4-((6,7-dimethoxy-3-methyl-4-oxo-3,4-dihydrophthalazin-1-yl)methyl)phenyl)sulfamide hydrochloride], the IC50 is below 1000 nM.

For `CN(c1ccc(Cc2n[nH]c(=O)c3ccccc23)cc1)S(N)(=O)=O` [Example 184, N-methyl-N-(4-((4-oxo-3,4-dihydrophthalazin-1-yl)methyl)phenyl)sulfamide hydrochloride], the IC50 was 1000 to 10000 nM.

Consider `COc1cc2c(Cc3ccc(N(C)S(N)(=O)=O)cc3)n[nH]c(=O)c2cc1OC` [Example 185, N-(4-((6,7-dimethoxy-4-oxo-3,4-dihydrophthalazin-1-yl)methyl)phenyl)-N-methylsulfamide hydrochloride], for which the IC50 is below 1000 nM.

`COc1cc2c(Cc3ccc(N(C)S(N)(=O)=O)cc3)nn(C)c(=O)c2cc1OC` [Example 186, N-(4-((6,7-dimethoxy-3-methyl-4-oxo-3,4-dihydrophthalazin-1-yl)methyl)phenyl)-N-methylsulfamide hydrochloride]: the IC50 was below 1000 nM.

`COc1cc2c(Cc3ccc4c(c3)CCN4S(N)(=O)=O)n[nH]c(=O)c2cc1OC` [Example 187, 5-((6,7-dimethoxy-4-oxo-3,4-dihydrophthalazin-1-yl)methyl)indoline-1-sulfonamide hydrochloride]: the IC50 was below 1000 nM.

As for `COc1cc2c(Cc3ccc4c(c3)CCN4S(N)(=O)=O)nn(C)c(=O)c2cc1OC` [Example 188, 5-((6,7-dimethoxy-3-methyl-4-oxo-3,4-dihydrophthalazin-1-yl)methyl)indoline-1-sulfonamide hydrochloride], the IC50 is below 1000 nM.

In the case of `NS(=O)(=O)Nc1ccc(Cc2n[nH]c(=O)c3ccccc23)c(F)c1` [Example 189, N-(3-fluoro-4-((4-oxo-3,4-dihydrophthalazin-1-yl)methyl)phenyl)sulfamide hydrochloride], the IC50 was below 1000 nM.

Regarding `NS(=O)(=O)Nc1ccc(Cc2n[nH]c(=O)c3ccccc23)cc1F` [Example 190, N-(2-fluoro-4-((4-oxo-3,4-dihydrophthalazin-1-yl)methyl)phenyl)sulfamide hydrochloride], the IC50 is below 1000 nM.
